The target of this assay is Serine/threonine-protein kinase Nek7 (Homo sapiens) (UniProt Q8TDX7). As to the kind of experiment: inhibition of NEK7 serine/threonine kinase activity – biochemical, Z'-LYTE FRET, direct format, recombinant human, dose response (AID 1671332).

pIC50: −log10 of the molar value.

One may read the pIC50 as −log10 of the IC50, conventionally taken in molar units.

Serine/threonine-protein kinase Nek7 (Homo sapiens), sequence (Q8TDX7 whole entry, looked up): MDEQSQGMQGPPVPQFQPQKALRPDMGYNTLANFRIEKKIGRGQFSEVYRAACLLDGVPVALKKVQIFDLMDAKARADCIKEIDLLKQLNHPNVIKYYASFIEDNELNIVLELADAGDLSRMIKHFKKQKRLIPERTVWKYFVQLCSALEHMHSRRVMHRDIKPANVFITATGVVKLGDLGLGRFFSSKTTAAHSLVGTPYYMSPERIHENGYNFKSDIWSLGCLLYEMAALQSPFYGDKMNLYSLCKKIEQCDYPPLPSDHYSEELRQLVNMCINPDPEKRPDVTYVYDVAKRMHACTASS

Take `CN1C(=O)C2(Cc3cn(C45CC67SSC(CO)(C(=O)N6C4Nc4ccccc45)N(C)C7=O)c4ccccc34)SSC1(CO)C(=O)N2C` (stereo unspecified): the pIC50 was 6.56.

For the origin of these results see PubChem BioAssay AID1671332.
